According to the supplement of paper PMC11451515:

Test system: NOMO1
Experiment: cell viability relative to DMSO control; higher = less cytotoxic
Details: 48 h
Summary of the method: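 Library compounds in DMSO were pin-dosed into 1536-well plates (5 μl) holding NOMO1 or SEM (500 cells/well) or P12-Ichikawa (1000 cells/well) leukemia cells, across an 11-point threefold series of 47 μM to 0.79 nM. Each cell line had been adapted for at least four passages in each medium. CellTiter-Glo One luminescence was read after 48 h at 37°C. Viability is the per-plate percentage relative to DMSO wells, with cell-free wells as background.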

[1] = HPLM + 10% dialyzed FBS, 0.000781 µM
[2] = HPLM + 10% dialyzed FBS, 0.00234 µM
[3] = HPLM + 10% dialyzed FBS, 0.00702 µM
[4] = HPLM + 10% dialyzed FBS, 0.0211 µM
[5] = HPLM + 10% dialyzed FBS, 0.0632 µM
[6] = HPLM + 10% dialyzed FBS, 0.19 µM
[7] = HPLM + 10% dialyzed FBS, 0.569 µM
[8] = HPLM + 10% dialyzed FBS, 1.71 µM
[9] = HPLM + 10% dialyzed FBS, 5.12 µM
[10] = HPLM + 10% dialyzed FBS, 15.4 µM
[11] = HPLM + 10% dialyzed FBS, 46.1 µM
[12] = RPMI 5 mM glucose + 10% FBS, 0.000781 µM
[13] = RPMI 5 mM glucose + 10% FBS, 0.00234 µM
[14] = RPMI 5 mM glucose + 10% FBS, 0.00702 µM
[15] = RPMI 5 mM glucose + 10% FBS, 0.0211 µM
[16] = RPMI 5 mM glucose + 10% FBS, 0.0632 µM
[17] = RPMI 5 mM glucose + 10% FBS, 0.19 µM
[18] = RPMI 5 mM glucose + 10% FBS, 0.569 µM
[19] = RPMI 5 mM glucose + 10% FBS, 1.71 µM
[20] = RPMI 5 mM glucose + 10% FBS, 5.12 µM
[21] = RPMI 5 mM glucose + 10% FBS, 15.4 µM
[22] = RPMI 5 mM glucose + 10% FBS, 46.1 µM
[23] = RPMI 5 mM glucose + 10% dialyzed FBS, 0.000781 µM
[24] = RPMI 5 mM glucose + 10% dialyzed FBS, 0.00234 µM
[25] = RPMI 5 mM glucose + 10% dialyzed FBS, 0.00702 µM
[26] = RPMI 5 mM glucose + 10% dialyzed FBS, 0.0211 µM
[27] = RPMI 5 mM glucose + 10% dialyzed FBS, 0.0632 µM
[28] = RPMI 5 mM glucose + 10% dialyzed FBS, 0.19 µM
[29] = RPMI 5 mM glucose + 10% dialyzed FBS, 0.569 µM
[30] = RPMI 5 mM glucose + 10% dialyzed FBS, 1.71 µM
[31] = RPMI 5 mM glucose + 10% dialyzed FBS, 5.12 µM
[32] = RPMI 5 mM glucose + 10% dialyzed FBS, 15.4 µM
[33] = RPMI 5 mM glucose + 10% dialyzed FBS, 46.1 µM

Row | Compound | cell viability [1] | cell viability [2] | cell viability [3] | cell viability [4] | cell viability [5] | cell viability [6] | cell viability [7] | cell viability [8] | cell viability [9] | cell viability [10] | cell viability [11] | cell viability [12] | cell viability [13] | cell viability [14] | cell viability [15] | cell viability [16] | cell viability [17] | cell viability [18] | cell viability [19] | cell viability [20] | cell viability [21] | cell viability [22] | cell viability [23] | cell viability [24] | cell viability [25] | cell viability [26] | cell viability [27] | cell viability [28] | cell viability [29] | cell viability [30] | cell viability [31] | cell viability [32] | cell viability [33]
1 | O=C1CCc2ccc(OCCCCN3CCN(c4cccc(Cl)c4Cl)CC3)cc2N1 | 115% | 98.6% | 119% | 77.7% | 96.1% | 109% | 89.2% | 91.6% | 106% | 107% | 85.1% | 91.2% | 91.7% | 94.7% | 86.6% | 92.9% | 89.5% | 96.6% | 97.2% | 81.6% | 93.6% | 77.6% | 106% | 83.6% | 97.7% | 75.2% | 96.1% | 93.6% | 91.5% | 98.1% | 91.1% | 97.5% | 78.7%
2 | COC1=CC2=C(C=C1OC)[C@H]3[C@@H](CO2)OC4=C(C=CC5=C4\C=C/C(C)(C)O5)C3=O | 82.8% | 89.3% | 106% | 96.8% | 95% | 98.5% | 94% | 82.8% | 70.4% | 69.3% | 10.3% | 88.8% | 95.3% | 93.3% | 99.2% | 89% | 93.6% | 90.8% | 82.8% | 78.7% | 76.5% | 9.87% | 86.3% | 88.1% | 91% | 95.2% | 79.9% | 98.1% | 94.3% | 88.5% | 81.9% | 81.4% | 21.4%
3 | CCCCCCCCc1ccc(CCC(N)(CO)CO)cc1 | 124% | 124% | 123% | 122% | 112% | 102% | 79.1% | 91% | 60.6% | 48.9% | 2.93% | 99.2% | 104% | 102% | 100% | 105% | 102% | 104% | 93.4% | 90.3% | 64.2% | 2.61% | 113% | 105% | 103% | 113% | 105% | 95.6% | 98.2% | 81% | 70.5% | 65.2% | 2.38%
4 | COc1cc2ncnc(Nc3cccc(Br)c3)c2cc1OC | 90.4% | 98.3% | 101% | 98.9% | 109% | 120% | 108% | 118% | 98.2% | 94.5% | 86.1% | 98% | 95.9% | 106% | 110% | 109% | 108% | 110% | 111% | 106% | 112% | 117% | 80.8% | 90.6% | 98.6% | 97.4% | 103% | 103% | 102% | 112% | 102% | 102% | 101%
5 | CCCCCCCCCCCCCCCCCCOP(=O)([O-])OC1CC[N+](C)(C)CC1 | 93.4% | 114% | 94.8% | 114% | 110% | 120% | 114% | 107% | 107% | 98.4% | 99% | 90.5% | 105% | 113% | 121% | 98.5% | 113% | 120% | 105% | 110% | 93.8% | 96.4% | 96.6% | 107% | 105% | 103% | 100% | 118% | 110% | 102% | 106% | 93.2% | 84.7%
6 | COc1ccc2c(c1OC)CN1CCc3cc4c(cc3C1C2)OCO4 (centres undefined) | 86.4% | 82.4% | 98.4% | 99.3% | 109% | 82.5% | 96.7% | 44.7% | 14.9% | 6.67% | 5.61% | 106% | 92.4% | 89.2% | 98.8% | 98.4% | 89.9% | 100% | 42.6% | 16% | 6.1% | 5.21% | 88% | 92.7% | 93.3% | 103% | 102% | 92.2% | 92.9% | 49.3% | 20.5% | 5.52% | 4.95%
7 | O=C(CCc1ccc(O)cc1)c1c(O)cc(O)cc1O[C@@H]1O[C@H](CO)[C@@H](O)[C@H](O)[C@H]1O | – | – | – | – | – | – | – | – | – | – | – | 82.5% | 80.8% | 81.7% | 77% | 92.1% | 86.1% | 82.4% | 78.1% | 85.4% | 75.1% | 84.8% | 104% | 96% | 115% | 105% | 115% | 106% | 50.2% | 73.1% | 85.1% | 53.1% | 81.2%
8 | CCOC1=CC(=CC=C1C/2=N/[C@@](C)(C3=CC=C(Cl)C=C3)[C@](C)(N2C(=O)N4CCN(CC4)CC(=O)N5CCOCC5)C6=CC=C(Cl)C=C6)C(C)(C)C | – | – | – | – | – | – | – | – | – | – | – | 93.3% | 90.6% | 96.3% | 105% | 112% | 121% | 98.6% | 99.3% | 102% | 91.6% | 97% | 92.6% | 113% | 102% | 102% | 126% | 120% | 124% | 100% | 81.8% | 90.1% | 86.2%
9 | CN[C@@H]1C[C@H]2O[C@@](C)([C@@H]1OC)n1c3ccccc3c3c4c(c5c6ccccc6n2c5c31)C(=O)N[C@H]4O | 81.2% | 101% | 93.1% | 78.2% | 96.8% | 56.4% | 48.8% | 35.4% | 22.7% | 18% | 3.31% | 76.2% | 87.6% | 81.4% | 82.7% | 84.6% | 69.4% | 64.7% | 19.6% | 14.8% | 12.7% | 3.97% | 79.9% | 84.5% | 85.9% | 90.5% | 95.9% | 85.5% | 65.5% | 31.6% | 16.9% | 14.7% | 3.79%
10 | Cc1cn(CCN2CCN(c3ccccc3-c3cc(C#N)cc(C(=O)NCCCN4CCCC4)c3)CC2)c2ccccc12 | 103% | 111% | 111% | 121% | 148% | 130% | 127% | 134% | 85.3% | 35.3% | 10.7% | 102% | 110% | 115% | 109% | 125% | 119% | 119% | 112% | 108% | 38.4% | 22.7% | 119% | 102% | 109% | 119% | 120% | 110% | 124% | 112% | 96.4% | 44.5% | 25.5%
11 | CC(C)NCC(O)COc1ccc(CCOCC2CC2)cc1 (centres undefined) | – | – | – | – | – | – | – | – | – | – | – | 118% | 128% | 107% | 109% | 105% | 107% | 109% | 110% | 114% | 102% | 19.9% | 121% | 125% | 122% | 117% | 119% | 118% | 129% | 113% | 116% | 99.1% | 20.9%
12 | N#CC(=C(/N)Sc1ccccc1N)/C(C#N)=C(\N)Sc1ccccc1N | 118% | 119% | 122% | 128% | 134% | 140% | 130% | 101% | 107% | 90.8% | 71% | 115% | 115% | 121% | 120% | 120% | 121% | 118% | 117% | 114% | 120% | 97.8% | – | – | – | – | – | – | – | – | – | – | –
13 | CN[S+](=O)([O-])CCc1ccc2[nH]cc(C3CCN(C)CC3)c2c1 | 91.2% | 95.9% | 91.3% | 114% | 112% | 107% | 106% | 101% | 98.6% | 108% | 107% | 83% | 84.2% | 91.3% | 86.6% | 99.7% | 89.5% | 87.6% | 92.7% | 102% | 87.8% | 96.4% | 91.5% | 83.4% | 90.3% | 95.4% | 93.3% | 104% | 105% | 96.2% | 102% | 85.3% | 89.3%
14 | COc1cc(OC)c(NC(=O)Nc2cc(C)on2)cc1Cl | 97.6% | 96.4% | 100% | 106% | 106% | 84.4% | 119% | 114% | 100% | 105% | 96.9% | 83.5% | 96.7% | 85.2% | 92.7% | 93.8% | 97.9% | 93.9% | 91% | 90.1% | 88.7% | 99.5% | 86.8% | 83.8% | 81.3% | 85.6% | 97.3% | 89.4% | 98% | 79.7% | 83% | 88.1% | 88.3%
15 | NC(=O)c1cccc(N)c1 | 116% | 107% | 119% | 114% | 135% | 134% | 124% | 130% | 126% | 125% | 101% | 97% | 104% | 114% | 120% | 104% | 123% | 105% | 97.8% | 109% | 113% | 127% | 102% | 104% | 114% | 116% | 109% | 133% | 116% | 110% | 112% | 106% | 115%
16 | OC1=CC=C(C=C1)\C2=C\C(=O)C3=C(O2)C=C(O)C=C3O | 102% | 111% | 104% | 107% | 103% | 126% | 89.2% | 107% | 98.1% | 84.1% | 57.2% | 108% | 112% | 108% | 108% | 105% | 105% | 97.9% | 96% | 107% | 88.9% | 53.6% | 108% | 101% | 114% | 104% | 104% | 102% | 116% | 99.3% | 97.8% | 80% | 54.6%
